One block for each compound: values may come before it.
Columns and labels:
[1] = target: T1, CofC (Paracoccus denitrificans) (Paracoccus denitrificans, UniProt A1B131); test: combined CofC/D assay, LC-MS; assay type: biochemical; conditions: competitive mixture of 3-PG, 2-PL, PEP (0.5 mM each), 2 mM GTP, 2 mM MgCl2, FO, Mjan-CofD, pH 7.4
T1 construct: gene Pden_1117; N-terminal His6, E. coli
T1 sequence (A1B131 1-216): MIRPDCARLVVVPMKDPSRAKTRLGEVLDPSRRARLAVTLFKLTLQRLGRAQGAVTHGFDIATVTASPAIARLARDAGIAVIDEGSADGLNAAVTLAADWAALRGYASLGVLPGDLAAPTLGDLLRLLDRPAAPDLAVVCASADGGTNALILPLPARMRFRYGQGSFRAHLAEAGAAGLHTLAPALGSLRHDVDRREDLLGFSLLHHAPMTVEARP

[2] = target: T2, CofC (Thermomicrobium roseum) (Thermomicrobium roseum, UniProt B9L4T8); test: combined CofC/D assay, LC-MS; assay type: biochemical; conditions: competitive mixture of 3-PG, 2-PL, PEP (0.5 mM each), 2 mM GTP, 2 mM MgCl2, FO, Mjan-CofD, pH 7.4
T2 construct: gene fbiD; N-terminal His6, E. coli
T2 sequence (B9L4T8 1-200): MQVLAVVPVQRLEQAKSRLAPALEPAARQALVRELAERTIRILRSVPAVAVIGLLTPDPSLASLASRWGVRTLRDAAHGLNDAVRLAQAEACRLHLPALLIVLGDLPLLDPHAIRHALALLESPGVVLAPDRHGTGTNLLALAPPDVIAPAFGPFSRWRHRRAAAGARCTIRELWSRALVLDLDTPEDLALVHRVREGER

[3] = target: T3, Msmeg-FbiD (Mycolicibacterium smegmatis, UniProt A0QUZ4); test: combined CofC/D assay, LC-MS; assay type: biochemical; conditions: competitive mixture of 3-PG, 2-PL, PEP (0.5 mM each), 2 mM GTP, 2 mM MgCl2, FO, Mjan-CofD, pH 7.4
T3 construct: N-terminal His6, full length, E. coli (plasmid pMH10)

[4] = target: T4, Mmaz-CofC (Methanosarcina mazei, UniProt Q8PU52); test: combined CofC/D assay, LC-MS; assay type: biochemical; conditions: competitive mixture of 3-PG, 2-PL, PEP (0.5 mM each), 2 mM GTP, 2 mM MgCl2, FO, Mjan-CofD, pH 7.4
T4 construct: N-terminal His6, E. coli
T4 sequence (Q8PU52 1-208): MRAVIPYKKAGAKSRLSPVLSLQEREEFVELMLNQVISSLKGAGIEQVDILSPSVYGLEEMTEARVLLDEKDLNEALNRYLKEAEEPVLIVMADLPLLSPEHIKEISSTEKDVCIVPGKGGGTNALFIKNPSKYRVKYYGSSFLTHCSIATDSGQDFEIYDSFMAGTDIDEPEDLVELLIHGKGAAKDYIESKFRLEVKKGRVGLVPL

[5] = target: T5, CofC (Archaeon GBE54128) (archaeon BMS3Bbin15, UniProt A0A2H6JTR5); test: combined CofC/D assay, LC-MS; assay type: biochemical; conditions: competitive mixture of 3-PG, 2-PL, PEP ([…] each), […] GTP, […] MgCl2, FO, Mjan-CofD, pH […]
T5 construct: N-terminal His6, E. coli; synthetic gene
T5 sequence (A0A2H6JTR5 1-207): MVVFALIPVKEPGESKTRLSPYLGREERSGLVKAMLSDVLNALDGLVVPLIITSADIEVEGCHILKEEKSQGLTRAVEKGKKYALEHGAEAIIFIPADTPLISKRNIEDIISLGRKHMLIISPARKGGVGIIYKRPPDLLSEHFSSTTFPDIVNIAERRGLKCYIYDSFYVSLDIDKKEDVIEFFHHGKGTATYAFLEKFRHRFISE

[6] = target: T6, CofC (Oligotropha carboxidovorans) (Afipia carboxidovorans, UniProt B6JBS5); test: combined CofC/D assay, LC-MS; assay type: biochemical; conditions: competitive mixture of 3-PG, 2-PL, PEP (0.5 mM each), 2 mM GTP, 2 mM MgCl2, FO, Mjan-CofD, pH 7.4
T6 construct: gene fbiD; N-terminal His6, E. coli
T6 sequence (B6JBS5 1-237): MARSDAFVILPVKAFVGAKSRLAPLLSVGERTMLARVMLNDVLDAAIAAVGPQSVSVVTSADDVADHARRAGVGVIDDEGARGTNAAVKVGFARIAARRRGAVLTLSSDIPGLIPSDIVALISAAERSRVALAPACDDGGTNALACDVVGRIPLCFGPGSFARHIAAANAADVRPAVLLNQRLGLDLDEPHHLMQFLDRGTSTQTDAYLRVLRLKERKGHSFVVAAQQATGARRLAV

[7] = target: T7, CofC (Ca. E. factor) (Candidatus Entotheonella factor, UniProt W4LIL2); test: combined CofC/D assay, LC-MS; assay type: biochemical; conditions: competitive mixture of 3-PG, 2-PL, PEP (0.5 mM each), 2 mM GTP, 2 mM MgCl2, FO, Mjan-CofD, pH 7.4
T7 construct: gene ETSY1_21445; N-terminal His6, E. coli

[8] = target: T8, CofC (Ca. H. archaeon) (Candidatus Hydrothermarchaeota archaeon, UniProt A0A497JEJ7); test: combined CofC/D assay, LC-MS; assay type: biochemical; conditions: competitive mixture of 3-PG, 2-PL, PEP ([…] each), […] GTP, […] MgCl2, FO, Mjan-CofD, pH […]
T8 construct: N-terminal His6, E. coli; synthetic gene; full organism name only in supplement
T8 sequence (A0A497JEJ7 1-207): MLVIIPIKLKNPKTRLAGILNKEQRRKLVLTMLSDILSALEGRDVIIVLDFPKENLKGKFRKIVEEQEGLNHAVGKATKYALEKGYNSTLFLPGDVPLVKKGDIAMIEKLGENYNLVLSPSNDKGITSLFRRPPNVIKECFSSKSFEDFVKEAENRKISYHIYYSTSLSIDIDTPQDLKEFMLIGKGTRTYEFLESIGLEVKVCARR

[9] = target: T9, Mrhiz-CofC (Mycetohabitans rhizoxinica, UniProt E5ASS2); test: combined CofC/D assay, LC-MS; assay type: biochemical; conditions: competitive mixture of 3-PG, 2-PL, PEP (0.5 mM each), 2 mM GTP, 2 mM MgCl2, FO, cognate CofD, pH 7.4
T9 construct: N-terminal His6, full length, E. coli (plasmid pFS03)

[10] = target: T10, Mjan-CofD (Methanocaldococcus jannaschii, UniProt Q58653); test: combined CofC/D assay, LC-MS; assay type: biochemical; conditions: coupled to CofC homologs forming LPPG, EPPG or GPPG; 2 mM GTP, 2 mM MgCl2, pH 7.4
T10 construct: N-terminal His6, E. coli

[11] = target: T11, CofC (nano-DSF); test: nano-DSF; assay type: binding; conditions: GPPG co-purified with the enzyme may be present
T11 construct: N-terminal His6, E. coli; Results place the test beside MycB3-CofC, Discussion names M. rhizoxinica

T7 sequence (W4LIL2 entry or part of it): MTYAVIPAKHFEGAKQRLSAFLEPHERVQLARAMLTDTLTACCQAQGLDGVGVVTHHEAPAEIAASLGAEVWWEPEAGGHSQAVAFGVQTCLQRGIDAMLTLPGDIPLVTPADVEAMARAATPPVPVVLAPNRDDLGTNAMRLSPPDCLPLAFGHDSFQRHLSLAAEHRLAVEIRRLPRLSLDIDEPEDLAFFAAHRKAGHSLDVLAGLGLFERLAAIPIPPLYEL
T9 sequence (E5ASS2 6-221): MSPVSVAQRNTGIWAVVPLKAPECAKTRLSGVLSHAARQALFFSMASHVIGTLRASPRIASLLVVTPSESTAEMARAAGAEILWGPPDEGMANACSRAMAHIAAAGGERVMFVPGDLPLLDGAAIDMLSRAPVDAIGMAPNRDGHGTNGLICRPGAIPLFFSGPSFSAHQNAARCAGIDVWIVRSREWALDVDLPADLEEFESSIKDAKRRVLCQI
T3 sequence (A0QUZ4 whole entry): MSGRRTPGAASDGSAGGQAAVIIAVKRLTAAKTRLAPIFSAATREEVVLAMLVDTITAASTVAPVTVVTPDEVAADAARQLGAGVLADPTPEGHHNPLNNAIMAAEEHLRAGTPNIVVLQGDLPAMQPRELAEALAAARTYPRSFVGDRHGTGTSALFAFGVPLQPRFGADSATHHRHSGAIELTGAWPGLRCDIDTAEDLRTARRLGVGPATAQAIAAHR
T10 sequence (Q58653 whole entry): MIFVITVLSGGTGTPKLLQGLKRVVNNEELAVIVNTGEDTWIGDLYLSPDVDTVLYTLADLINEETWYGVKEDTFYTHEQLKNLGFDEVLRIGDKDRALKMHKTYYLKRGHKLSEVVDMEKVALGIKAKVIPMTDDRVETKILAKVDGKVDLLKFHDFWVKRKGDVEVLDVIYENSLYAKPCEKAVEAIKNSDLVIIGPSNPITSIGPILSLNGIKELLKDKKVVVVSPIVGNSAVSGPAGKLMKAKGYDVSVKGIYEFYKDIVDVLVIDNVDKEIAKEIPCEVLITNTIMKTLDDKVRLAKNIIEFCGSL

Compound: C[C@H](OP(=O)(O)O)C(=O)O [2-PL]
combined CofC/D assay, LC-MS [1]: For all CofC-related enzymes analyzed, 2-PL was used most efficiently
combined CofC/D assay, LC-MS [2]: For all CofC-related enzymes analyzed, 2-PL was used most efficiently
combined CofC/D assay, LC-MS [3]: the M. smegmatis FbiD tested in this study preferred 2-PL as substrate
combined CofC/D assay, LC-MS [4]: For all CofC-related enzymes analyzed, 2-PL was used most efficiently
combined CofC/D assay, LC-MS [5]: 2-PL was the best substrate of all three enzymes
combined CofC/D assay, LC-MS [6]: For all CofC-related enzymes analyzed, 2-PL was used most efficiently
combined CofC/D assay, LC-MS [7]: For all CofC-related enzymes analyzed, 2-PL was used most efficiently
combined CofC/D assay, LC-MS [8]: 2-PL was the best substrate of all three enzymes

Compound: O=C(O)[C@H](O)COP(=O)(O)O [3-PG]
combined CofC/D assay, LC-MS [5]: all of those enzymes accepted 3-PG as substrates
combined CofC/D assay, LC-MS [9]: combined with their cognate CofD, the apparent substrate specificity shifted almost completely toward 3-PG
combined CofC/D assay, LC-MS [8]: all of those enzymes accepted 3-PG as substrates

Compound: O=c1nc2n(C[C@H](O)[C@H](O)[C@H](O)CO)c3cc(O)ccc3cc-2c(=O)[nH]1 [FO, 7,8-didemethyl-8-hydroxy-5-deazariboflavin]
combined CofC/D assay, LC-MS [10]: Distinct derivatives of F420-0 were produced via biochemical reaction of purified CofC and CofD

Kd [11]: < 20 µM
Compound: Nc1nc2c(ncn2[C@@H]2O[C@H](COP(=O)(O)OP(=O)(O)OP(=O)(O)O)[C@@H](O)[C@H]2O)c(=O)[nH]1 [GTP]
